The results in this text go back to patent US8445674B2, “Heterocyclyl compounds” (Hoffmann-La Roche Inc, priority 2009, dated 2013).

Each structure is given as a SMILES string.

One may read the IC50 as the concentration that inhibits the measured activity by half.

The test has as its target T1, human chemokine receptor 2 isoform B (Homo sapiens, UniProt P41597).
T1 construct: host or cells: CHOK1-CCR2B-A5 cells (CHO-K1)
T1 sequence (P41597 1-360 isoform P41597-2): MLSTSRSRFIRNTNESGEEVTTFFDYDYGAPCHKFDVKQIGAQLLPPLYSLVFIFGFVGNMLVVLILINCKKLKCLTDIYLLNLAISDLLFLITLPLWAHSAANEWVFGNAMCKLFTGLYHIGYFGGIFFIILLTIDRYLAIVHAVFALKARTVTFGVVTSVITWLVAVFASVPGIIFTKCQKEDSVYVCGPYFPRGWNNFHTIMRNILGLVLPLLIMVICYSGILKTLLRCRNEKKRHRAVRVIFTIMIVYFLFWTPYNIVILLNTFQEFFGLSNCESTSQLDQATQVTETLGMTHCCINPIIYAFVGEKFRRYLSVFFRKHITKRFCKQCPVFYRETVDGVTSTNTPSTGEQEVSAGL
Briefly: Calcium mobilization assay (FLIPR, antagonist activity against MCP-1). The following applies: Ca mobilisation assay, CHOK1-CCR2B-A5 cells, inhibition of calcium increase induced by 20 nM MCP-1. It counts as cell-based. Put shortly: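 CHOK1 cells stably overexpressing human CCR2B, loaded with 4 μM Fluo-4 for 2 h at 30° C, compounds added and agonist signal read by FLIPR for 80 s. After 20-30 min at 30° C, 20 nM MCP-1 was added and fluorescence read again. IC50 is 50% inhibition of specific calcium increase (max minus basal).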

On to `C[C@H]1C[C@H](O)CN(C(=O)CCCN2CCN(C(=O)Nc3cccc(Cl)c3)[C@@H](C)C2=O)C1` [Example 113, (S)-4-[4-((3S,5S)-3-Hydroxy-5-methyl-piperidin-1-yl)-4-oxo-butyl]-2-methyl-3-oxo-piperazine-1-carboxylic acid (3-chloro-phenyl)-amide], for which the IC50 stood at 1420 nM. In the case of `O=C(CC[C@@H](CO)N1CCN(c2ccc(C(F)(F)F)c(Cl)c2)CCC1=O)N1CCC2(CC2)[C@H](O)C1` [Example 124, 1-(3-Chloro-4-trifluoromethyl-phenyl)-4-[(S)-4-((S)-4-hydroxy-6-aza-spiro[2.5]oct-6-yl)-1-hydroxymethyl-4-oxo-butyl]-[1,4]diazepan-5-one], the IC50 was determined as 8 nM. Turning to `O=C1CCN(C(=O)Nc2ccc(Cl)c(C(F)(F)F)c2)CCN1CCCC(=O)N1CCC2(CC2)[C@H](O)C1` [Example 118, 4-[4-((S)-4-Hydroxy-6-aza-spiro[2.5]oct-6-yl)-4-oxo-butyl]-5-oxo-[1,4] diazepane-1-carboxylic acid (4-chloro-3-trifluoromethyl-phenyl)-amide], the IC50 worked out at 51.7 nM. Turning to `C[C@H]1C(=O)N(CCCC(=O)N2CCC3(CC3)[C@H](O)C2)CCN1c1ccc(Cl)c(Cl)c1` [Example 59, (S)-4-(3,4-dichloro-phenyl)-1-[4-((S)-4-hydroxy-6-aza-spiro[2.5]oct-6-yl)-4-oxo-butyl]-3-methyl-piperazin-2-one], the half-maximal inhibitory concentration (IC50) was 23.2 nM. For the molecule `CC1CCN(C(=O)CCN2CCN(C(=O)/C=C/c3ccc(Cl)c(Cl)c3)CCC2=O)CC1` [Example 85, 1-[(E)-3-(3,4-Dichloro-phenyl)-acryloyl]-4-[3-(4-methyl-piperidin-1-yl)-3-oxo-propyl]-[1,4]diazepan-5-one], the IC50 was found to be 1520 nM. For the molecule `O=C(/C=C/c1ccc(Cl)c(Cl)c1)N1CCC(=O)N(CCC(=O)N2CCC(N3CCNC3=O)CC2)CC1` [Example 92, 1-[(E)-3-(3,4-Dichloro-phenyl)-acryloyl]-4-{3-oxo-3-[4-(2-oxo-imidazolidin-1-yl)-piperidin-1-yl]-propyl}-[1,4]diazepan-5-one], the IC50 turned out to be 952 nM. Consider `C[C@H]1C(=O)N(CC(O)CC(=O)N2CCC3(CC3)[C@H](O)C2)CCN1C(=O)Nc1ccc(Cl)c(Cl)c1` (stereo partly drawn) [Example 40, (S)-4-[(R,S)-2-Hydroxy-4-((S)-4-hydroxy-6-aza-spiro[2.5]oct-6-yl)-4-oxo-butyl]-2-methyl-3-oxo-piperazine-1-carboxylic acid (3,4-dichloro-phenyl)-amide], for which the IC50 came out at 7.6 nM. The value for `C[C@H]1C(=O)N(CCCC(=O)N2CCC3(CC3)[C@H](O)C2)CCN1c1ccc(C(F)(F)F)c(Cl)c1` [Example 60, (S)-4-(3-chloro-4-trifluoromethyl-phenyl)-1-[4-((S)-4-hydroxy-6-aza-spiro[2.5]oct-6-yl)-4-oxo-butyl]-3-methyl-piperazin-2-one] was 5 nM; that for `CC1(CO)CCCN1C(=O)CCN1CCN(C(=O)/C=C/c2ccc(Cl)c(Cl)c2)CCC1=O` (racemic) [Example 81, (rac)-1-[(E)-3-(3,4-Dichloro-phenyl)-acryloyl]-4-[3-(2-hydroxymethyl-2-methyl-pyrrolidin-1-yl)-3-oxo-propyl]-[1,4]diazepan-5-one] was 1680 nM; that for `C[C@H]1C(=O)N(CCCC(=O)N2CCC3(CC3)[C@H](O)C2)CCN1C(=O)Nc1ccc(Cl)c(C(F)(F)F)c1` [Example 32, (S)-4-[4-((S)-4-Hydroxy-6-aza-spiro[2.5]oct-6-yl)-4-oxo-butyl]-2-methyl-3-oxo-piperazine-1-carboxylic acid (4-chloro-3-trifluoromethyl-phenyl)-amide] was 5.9 nM. As for `C[C@H]1C(=O)N(CCCC(=O)N2CC[C@](C)(CO)[C@H](O)C2)CCN1C(=O)Nc1cccc(Cl)c1` (racemic) [Example 114, (S)-4-[4-((3SR,4RS)-3-Hydroxy-4-hydroxymethyl-4-methyl-piperidin-1-yl)-4-oxo-bulyl]-2-methyl-3-oxo-piperazine-1-carboxylic acid (3-chloro-phenyl)-amide], the IC50 was 31.5 nM.
